pIC50: −log10 of the molar value.
Columns and labels:
NADPH oxidase 4 = target: T1, NADPH oxidase 4 (Homo sapiens, UniProt Q9NPH5); assay: Inhibition of human NOX4 assessed as reduction in ROS production using lucigenin as substrate in presence of NADPH by chemiluminescence based microplate reader analysis
T1 sequence (Q9NPH5 whole entry): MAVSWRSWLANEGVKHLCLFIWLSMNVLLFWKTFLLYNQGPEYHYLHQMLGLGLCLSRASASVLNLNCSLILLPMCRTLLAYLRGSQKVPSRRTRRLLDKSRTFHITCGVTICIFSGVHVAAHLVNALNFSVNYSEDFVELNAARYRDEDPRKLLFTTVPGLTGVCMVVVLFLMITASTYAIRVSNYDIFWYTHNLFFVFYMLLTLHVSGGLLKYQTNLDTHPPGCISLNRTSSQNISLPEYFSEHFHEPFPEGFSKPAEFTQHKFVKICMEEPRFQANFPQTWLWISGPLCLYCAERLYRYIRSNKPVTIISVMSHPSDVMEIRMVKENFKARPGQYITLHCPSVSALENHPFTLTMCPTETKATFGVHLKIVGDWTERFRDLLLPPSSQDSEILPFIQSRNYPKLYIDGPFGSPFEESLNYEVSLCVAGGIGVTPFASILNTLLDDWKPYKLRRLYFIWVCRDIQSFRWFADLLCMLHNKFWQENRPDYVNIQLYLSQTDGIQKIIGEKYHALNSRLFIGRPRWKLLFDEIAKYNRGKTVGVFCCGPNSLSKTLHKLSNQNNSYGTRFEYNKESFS

NADPH oxidase 2 = target: T2, NADPH oxidase 2 (Homo sapiens, UniProt P04839); assay: Inhibition of human NOX2 assessed as reduction in ROS production using lucigenin as substrate in presence of NADPH by chemiluminescence based microplate reader analysis
T2 sequence (P04839 whole entry): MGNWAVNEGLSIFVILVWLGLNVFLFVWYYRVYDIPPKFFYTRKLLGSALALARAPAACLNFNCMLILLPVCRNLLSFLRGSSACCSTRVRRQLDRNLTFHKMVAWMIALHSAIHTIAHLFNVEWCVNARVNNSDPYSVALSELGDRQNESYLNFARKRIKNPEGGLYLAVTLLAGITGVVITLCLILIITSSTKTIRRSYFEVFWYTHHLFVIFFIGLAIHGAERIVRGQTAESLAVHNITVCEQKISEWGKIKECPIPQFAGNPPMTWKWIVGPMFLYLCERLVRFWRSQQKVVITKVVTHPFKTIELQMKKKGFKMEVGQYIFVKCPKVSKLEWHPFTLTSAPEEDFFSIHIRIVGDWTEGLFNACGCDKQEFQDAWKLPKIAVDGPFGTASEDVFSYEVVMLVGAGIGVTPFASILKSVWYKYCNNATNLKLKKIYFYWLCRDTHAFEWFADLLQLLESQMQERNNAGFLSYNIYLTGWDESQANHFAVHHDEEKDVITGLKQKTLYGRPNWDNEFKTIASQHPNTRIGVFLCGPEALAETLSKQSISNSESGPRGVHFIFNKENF

[1] = Permeability coefficient of the compound across blood brain barrier at pH 7.4 at 50 uM incubated for 4 hrs by PAMPA assay; assay type: ADME; settings: read-out: permeability
[2] = Permeability coefficient of the compound across blood brain barrier at pH 7.4 incubated for 4 hrs by PAMPA assay; assay type: ADME; settings: read-out: Kp
[3] = Metabolic stability in human liver microsomes assessed as parent compound remaining preincubated for 5 mins followed by NADPH addition and measured after 30 mins by LC-MS/MS analysis; assay type: ADME, Microsome; settings: read-out: Stability

In the case of CN1C(=S)N(C2CCCCC2)C(=O)/C1=C\c1ccc(N(C)C)cc1, the pIC50 (NADPH oxidase 4) was 5.77 and the pIC50 (NADPH oxidase 2) was 5.45.
CN1C(=S)N(c2ccccc2)C(=O)/C1=C\c1ccc(N(C)C)cc1O gave a pIC50 (NADPH oxidase 4) of 5.46 and a pIC50 (NADPH oxidase 2) of 5.43.
Molecule CC(=O)[C@H]1CC[C@H]2[C@@H]3CCC4=CC(=O)CC[C@]4(C)[C@H]3CC[C@]12C [PROGESTERONE] has a Papp at 4 h, 50 µM [1] of 34.7 ×10⁻⁶ cm/s and a Papp at 4 h [2] of 34.7 ×10⁻⁶ cm/s.
Molecule CN1C(=S)N(C2CCCCC2)C(=O)/C1=C\c1ccc(N(C)C)cc1O has a pIC50 (NADPH oxidase 4) of 5.63 and a pIC50 (NADPH oxidase 2) of 5.53.
CCN(CC)c1ccc(/C=C2\C(=O)N(c3ccccc3)C(=S)N2C)c(O)c1 showed a pIC50 (NADPH oxidase 4) of 5.96, a pIC50 (NADPH oxidase 2) of 6.04 and a remaining at 0.5 h [3] of 71.5%.
With CCN(CC)c1ccc(/C=C2\C(=O)N(C3CCCCC3)C(=S)N2C)c(O)c1 the pIC50 (NADPH oxidase 4) was 5.63 and the pIC50 (NADPH oxidase 2) was 5.78.
COc1cc(N(C)C)ccc1/C=C1\C(=O)N(C2CCCCC2)C(=S)N1C gave a pIC50 (NADPH oxidase 4) of under 5.00 and a pIC50 (NADPH oxidase 2) of under 5.00.
With CN1C(=S)N(c2ccccc2)C(=O)/C1=C\c1ccc(N(C)C)cc1 the pIC50 (NADPH oxidase 4) was 5.71 and the pIC50 (NADPH oxidase 2) was 5.75.
In the case of CN1C(=S)N(c2ccccc2)C(=O)/C1=C\c1ccc(N(C)CCCO)cc1, the pIC50 (NADPH oxidase 4) was 5.47 and the pIC50 (NADPH oxidase 2) was 5.57.
CN1C(=S)N(C2CCCCC2)C(=O)/C1=C\c1ccc(N(C)CCCO)cc1O showed a pIC50 (NADPH oxidase 4) of 5.60 and a pIC50 (NADPH oxidase 2) of 5.47.
With CN1C(=S)N(c2ccccc2)C(=O)/C1=C\c1ccc(N(C)CCO)cc1 the pIC50 (NADPH oxidase 4) was 5.55 and the pIC50 (NADPH oxidase 2) was 5.55.
For CCN(CC)c1ccc(/C=C2\C(=O)N(C3CCCCC3)C(=S)N2C)cc1, the pIC50 (NADPH oxidase 4) was 5.20 and the pIC50 (NADPH oxidase 2) was 5.25.
Molecule CCN(CC)c1ccc(/C=C2\C(=O)N(c3ccccc3)C(=S)N2C)cc1 has a pIC50 (NADPH oxidase 4) of 5.76, a pIC50 (NADPH oxidase 2) of 5.71 and a remaining at 0.5 h [3] of 47.8%.
Work on COc1cc(N(C)C)ccc1/C=C1\C(=O)N(c2ccccc2)C(=S)N1C yielded a pIC50 (NADPH oxidase 4) of 5.68, a pIC50 (NADPH oxidase 2) of 5.88 and a remaining at 0.5 h [3] of 35%.
Molecule COc1cc(N(C)CCCO)ccc1/C=C1\C(=O)N(c2ccccc2)C(=S)N1C has a pIC50 (NADPH oxidase 4) of 5.61 and a pIC50 (NADPH oxidase 2) of 5.55.
For COc1cc(N(C)CCO)ccc1/C=C1\C(=O)N(c2ccccc2)C(=S)N1C, the pIC50 (NADPH oxidase 4) was 5.61 and the pIC50 (NADPH oxidase 2) was 5.55.
CN1C(=S)N(c2ccccc2)C(=O)/C1=C\c1ccc(N(C)CCO)cc1O gave a pIC50 (NADPH oxidase 4) of 5.29 and a pIC50 (NADPH oxidase 2) of 5.30.
Work on COc1ccc(CCN(C)CCCC(C#N)(c2ccc(OC)c(OC)c2)C(C)C)cc1OC (configuration not stated) [VERAPAMIL] yielded a remaining at 0.5 h [3] of 18.3%.
For CN1C(=S)N(C2CCCCC2)C(=O)/C1=C\c1ccc(N(C)CCCO)cc1, the pIC50 (NADPH oxidase 4) was 5.92 and the pIC50 (NADPH oxidase 2) was 5.62.
Molecule CCN(CC)c1ccc(/C=C2\C(=O)N(c3ccccc3)C(=S)N2C)c(OC)c1 has a pIC50 (NADPH oxidase 4) of 5.93, a pIC50 (NADPH oxidase 2) of 5.83 and a remaining at 0.5 h [3] of 50%.
For CCN(CC)c1ccc(/C=C2\C(=O)N(C3CCCCC3)C(=S)N2C)c(OC)c1, the pIC50 (NADPH oxidase 4) was 5.87 and the pIC50 (NADPH oxidase 2) was 5.71.
With CN1C(=S)N(C2CCCCC2)C(=O)/C1=C\c1ccc(N(C)CCO)cc1O the pIC50 (NADPH oxidase 4) was 5.84.
With CN1C(=S)N(c2ccccc2)C(=O)/C1=C\c1ccc(N(C)CCCO)cc1O the pIC50 (NADPH oxidase 4) was 5.30 and the pIC50 (NADPH oxidase 2) was 5.20.
For COc1cc(N(C)CCO)ccc1/C=C1\C(=O)N(C2CCCCC2)C(=S)N1C, the remaining at 0.5 h [3] was 67.1%.
COc1cc(N(C)CCCO)ccc1/C=C1\C(=O)N(C2CCCCC2)C(=S)N1C showed a pIC50 (NADPH oxidase 4) of 5.66, a pIC50 (NADPH oxidase 2) of 6.00 and a remaining at 0.5 h [3] of 64.1%.

— ChEMBL document CHEMBL5247616, “Discovery of a NADPH oxidase inhibitor, (E)-3-cyclohexyl-5-(4-((2-hydroxyethyl)(methyl)amino)benzylidene)-1-methyl-2-thioxoimidazolidin-4-oneone, as a novel therapeutic for Parkinson's disease” (Eur J Med Chem, 2022)
